Here are results for 2 compounds from patent US10087156B2, “Methods and compositions related to retinoid receptor-selective pathway” (Sanford Burnham Prebys Medical Discovery Institute, priority 2010, dated 2018).

Entries after “also recorded” stand apart in the source; their conditions may differ.

The subject of assay [1] is prostaglandin E2 (PGE2) production. Kind of assay: PGE2 production in A549 cells. It is filed as cell-based, human. The protocol: A549 cells were seeded in 24-well plates in DMEM with 10% fetal bovine serum. After overnight culture, cells were stimulated with 10 ng/ml IL-1β in DMEM medium without serum for 24 hr. After 10 min pretreatment with the indicated concentrations of Sulindac or analog, cells were co-treated with 10 μM arachidonic acid and Sulindac or its analog for 30 min at 37° C. Medium was collected and immediately assayed. PGE2 production was measured with Prostaglandin E2 EIA Kit-Monoclonal according to the manufacturer's instructions (Cayman Chemical, Ann Arbor, Mich.). PGE2 production (%) is expressed as the ratio of PGE2 produced in the presence of compound to that with vehicle alone.

The next assay deals with cancer. Briefly: Preventing cancer in a human patient. It is filed as in vivo. The settings on record: 150 mg tablet twice daily. As for the experimental part: A human patient with an elevated risk of developing cancer relative to the general population is identified and instructed to take a 150 mg tablet containing the active ingredient K-80003 twice daily.
The test system of assay [2] is AKT. Briefly: Retinoic acid-induced AKT activation by immunoblotting. It is filed as cell-based. The following applies: 50 μM each, Caco-2 and MEF cells.
Protocol: MEF and Caco-2 cells were starved overnight and pretreated with Sulindac for 30 min before exposure to all-trans-retinoic acid (ATRA) (10^−7 M) for 30 min and analyzed for AKT activation (FIG. 12B).
Caco-2 and MEF cells were treated with the indicated concentration of Sulindac or K-80003 for 30 min, then stimulated with all-trans-RA (10^−7 M) for 15 min. AKT activation was analyzed by immunoblotting.
For assay [3], the system named is AKT. Kind of assay: Basal AKT activation by immunoblotting. Type of assay: cell-based. The following applies: various cancer cell lines incl. SW480 and HCT116, 100 μM, 1 hr. As for the experimental part: HepG2, SW480, RAW264.7, HCT116, LNCaP, PC3, ZR-75-1, and HaCat cells were starved overnight and treated with Sulindac (100 μM) for 1 hr and analyzed for AKT activation by immunoblotting (FIG. 3A). HepG2 cells were also transfected with RXRα siRNA for 48 hours, treated with Sulindac (100 μM) for 1 hour, and analyzed for AKT activation and RXRα expression by immunoblotting (FIG. 3B).
For immunoblotting, cell lysates were boiled in SDS sample buffer, resolved by SDS-polyacrylamide gel electrophoresis, and transferred to nitrocellulose. After transfer, the membranes were blocked in 5% milk in TBST (10 mM Tris-HCl, pH. 8.0, 150 mM NaCl, 0.05% Tween 20) containing antibody. The membranes were then washed three times with TBST, then incubated for 1 hr at room temperature in 5% milk in TBST containing horseradish peroxide-linked anti-immunoglobulin.
A general note: Immunoblotting shows a protein as a band on a membrane.

Another assay addresses RARγ protein (Homo sapiens, UniProt P13631). Briefly: Ligand-binding assay with [3H]all-trans-RA. The following applies: competition with [3H]all-trans-RA. As for the experimental part: Purified RARγ protein was incubated with [^3H]all-trans-RA in the presence or absence of Sulindac or unlabeled all-trans RA. Bound [^3H]all-trans-RA was quantitated by liquid scintillation counting.

Another assay concerns the target T1, Nur77 (Homo sapiens, UniProt P22736).
T1 construct: expressed in transfected cells
Briefly: HPLC analysis of sulindac sulfide binding to receptor protein in cells. The following applies: HEK293T cells, 100 μM, 3 hr. As for the experimental part: (§1) Competitive ligand-binding assays (FIG. 1A) and HPLC analysis of Sulindac binding to RXRα, Nur77, or RARβ in HEK293T cells (FIG. 1B) were performed. RXRα LBD protein was incubated with [^3H]9-cis-RA in the presence or absence of Sulindac or unlabeled 9-cis-RA. Bound [^3H]9-cis-RA was quantitated by liquid scintillation counting (FIG. 1A). HEK293T cells stably expressing RXRαfused to a C-terminal TAP tag (Stratagene, La Jolla, Calif.) were treated with or without 100 μM sulindac sulfide for 3 hr. After treatment, cells were purified and analyzed by HPLC for the presence of sulindac sulfide. A standard solution of sulindac sulfide was used to obtain the calibration curve. Characteristic peak spectrum and retention time was used for identification, and peak areas at max used for quantification were calculated (FIGS. 1B and 10).
(§2) Expression vector containing receptor fused to C-terminal TAP fusion (Stratagene, La Jolla, Calif.) was transfected into HEK293 cells using FuGene 6 transfection reagent (Roche, Basel, Switzerland). The cells were maintained in exponential growth in complete medium, DMEM (Mediatech Inc., Herndon, Va.) supplemented with 10% calf serum (SCS, Hyclone Logan, Utah), 2 mM glutamine, penicillin (100 U/ml) and streptomycin (100 μg/ml). At two days post-transfection cells were switched into medium containing […] G418 until 20 days post-transfection, when dishes were scored for drug-resistant colonies. Expression of RXRα fusion protein was determined by immunoblotting. […] A standard solution of sulindac sulfide was used to obtain the calibration curve.

A further assay addresses T2, RXRα (Homo sapiens, UniProt P19793).
T2 construct: expressed in transfected cells
The assay is described as above. The settings on record: HEK293T cells stably expressing TAP-tagged receptor, 100 μM, 3 hr. As for the experimental part: as §1, §2

The next assay deals with T3, RARβ (Homo sapiens, UniProt P10826).
T3 construct: expressed in transfected cells
T3 sequence (P10826 whole entry, species assumed): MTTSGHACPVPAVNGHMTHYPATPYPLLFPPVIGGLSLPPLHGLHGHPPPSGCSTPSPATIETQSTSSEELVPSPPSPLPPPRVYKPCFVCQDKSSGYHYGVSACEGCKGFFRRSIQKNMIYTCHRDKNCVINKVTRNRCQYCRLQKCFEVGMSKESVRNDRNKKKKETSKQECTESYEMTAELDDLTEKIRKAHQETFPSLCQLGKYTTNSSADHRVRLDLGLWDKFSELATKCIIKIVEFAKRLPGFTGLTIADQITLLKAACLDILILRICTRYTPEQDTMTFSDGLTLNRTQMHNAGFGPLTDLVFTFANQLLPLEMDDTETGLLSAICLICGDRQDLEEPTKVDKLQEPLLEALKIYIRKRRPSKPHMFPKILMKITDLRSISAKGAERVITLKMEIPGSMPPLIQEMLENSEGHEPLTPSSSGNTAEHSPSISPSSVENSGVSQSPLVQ
Described as above. The settings on record: HEK293T cells, 100 μM, 3 hr. The protocol: as §1, §2

In another assay the target is RXRα LBD (Homo sapiens, UniProt P19793). Kind of assay: Proteolytic protection assay (chymotrypsin sensitivity). Type of assay: binding. The settings on record: 100 μM. The protocol: Altered sensitivity of RXRα ligand-binding domain (LBD) to chymotrypsin (ug/ml) by Sulindac (100 μM) (FIG. 1C) and differential scanning calorimetry (DSC) scans comparing ^19F NMR spectra of Sulindac (100 μM) in the absence and presence of 10 μM RXRα LBD or Nur77 protein (FIG. 1D) were also determined. Binding to RXRα was confirmed by altered sensitivity of RXRα to chymotrypsin digestion by Sulindac (FIG. 1C) and differential scanning calorimetry (DSC) (FIG. 1D). In addition, inhibition of SR11237 (10^−6 M)-activated RXRα transactivation by Sulindac was measured (FIG. 1F, see Example 2).
Chain of RXRα LBD (P19793 227-458 limits assumed): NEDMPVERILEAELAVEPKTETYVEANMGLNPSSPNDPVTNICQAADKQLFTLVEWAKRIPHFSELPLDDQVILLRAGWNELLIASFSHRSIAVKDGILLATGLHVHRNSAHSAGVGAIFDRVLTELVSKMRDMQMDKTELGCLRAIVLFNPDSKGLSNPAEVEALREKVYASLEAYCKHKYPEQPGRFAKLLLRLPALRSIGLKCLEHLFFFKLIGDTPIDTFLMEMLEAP
RXRα LBD was synthesized by in vitro transcription-translation using rabbit reticulocyte lysates (Promega, Fitchburg, Wis.) as described previously (Kolluri, S. K. et al., Proc Natl Acad Sci USA 102 (7), 2525-2530 (2005); Zhang, X. K. et al., Nature 355 (6359), 441-446 (1992); Zhang, X.-K. et al., Nature. 358 (6387), 587-591 (1992)). In vitro translated ^35[S]methionine labeled RXRα-LBD was preincubated with solvent (1% DMSO), Sulindac (100 μM) or 9-cis-RA (10^−7 M) for 30 min. and then digested with indicated concentration of chymotrypsin. Digested fragments were separated by PAGE.

The next assay deals with COX. The settings on record: Haanen, 2001; cited from earlier work.

T1 sequence (P22736 whole entry, species assumed): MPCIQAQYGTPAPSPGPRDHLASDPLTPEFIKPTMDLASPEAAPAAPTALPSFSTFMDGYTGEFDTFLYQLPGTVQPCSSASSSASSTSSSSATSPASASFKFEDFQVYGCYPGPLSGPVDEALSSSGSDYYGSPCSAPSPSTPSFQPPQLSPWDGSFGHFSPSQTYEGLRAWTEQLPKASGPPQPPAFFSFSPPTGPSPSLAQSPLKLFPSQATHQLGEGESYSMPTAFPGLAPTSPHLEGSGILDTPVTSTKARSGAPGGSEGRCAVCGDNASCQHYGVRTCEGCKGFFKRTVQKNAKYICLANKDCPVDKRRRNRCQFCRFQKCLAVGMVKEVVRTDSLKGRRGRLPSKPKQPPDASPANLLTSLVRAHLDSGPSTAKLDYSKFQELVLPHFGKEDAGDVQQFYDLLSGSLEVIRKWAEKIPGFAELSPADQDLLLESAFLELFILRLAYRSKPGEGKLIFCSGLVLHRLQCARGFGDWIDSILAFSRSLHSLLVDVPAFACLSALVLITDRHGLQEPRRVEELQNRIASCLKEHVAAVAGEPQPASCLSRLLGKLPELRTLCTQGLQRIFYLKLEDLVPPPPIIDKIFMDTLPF
Chain of RARγ protein (P13631 whole entry, species assumed): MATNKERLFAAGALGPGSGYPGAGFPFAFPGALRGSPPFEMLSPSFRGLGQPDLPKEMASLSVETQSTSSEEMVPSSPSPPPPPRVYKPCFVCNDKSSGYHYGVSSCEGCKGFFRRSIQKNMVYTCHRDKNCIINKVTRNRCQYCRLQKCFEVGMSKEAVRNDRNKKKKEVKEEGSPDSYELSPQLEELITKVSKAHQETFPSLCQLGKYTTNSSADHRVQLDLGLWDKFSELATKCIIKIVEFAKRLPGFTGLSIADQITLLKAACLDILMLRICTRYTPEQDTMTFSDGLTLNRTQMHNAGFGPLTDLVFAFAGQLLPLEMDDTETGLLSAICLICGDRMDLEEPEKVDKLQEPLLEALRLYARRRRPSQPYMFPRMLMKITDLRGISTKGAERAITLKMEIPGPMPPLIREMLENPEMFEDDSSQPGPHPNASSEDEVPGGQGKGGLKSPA
T2 sequence (P19793 whole entry): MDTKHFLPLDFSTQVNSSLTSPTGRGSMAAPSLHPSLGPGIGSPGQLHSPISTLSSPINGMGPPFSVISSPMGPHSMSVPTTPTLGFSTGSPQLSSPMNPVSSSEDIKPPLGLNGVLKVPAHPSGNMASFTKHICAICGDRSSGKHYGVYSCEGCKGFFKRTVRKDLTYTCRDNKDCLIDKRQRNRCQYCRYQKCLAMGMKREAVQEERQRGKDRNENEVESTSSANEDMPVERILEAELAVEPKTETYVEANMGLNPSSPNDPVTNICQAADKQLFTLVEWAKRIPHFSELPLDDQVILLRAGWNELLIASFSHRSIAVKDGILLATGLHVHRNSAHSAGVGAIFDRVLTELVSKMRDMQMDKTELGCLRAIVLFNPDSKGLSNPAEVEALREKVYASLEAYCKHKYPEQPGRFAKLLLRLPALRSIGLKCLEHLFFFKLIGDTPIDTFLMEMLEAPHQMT

For `CC1=C(CC(=O)O)c2cc(F)ccc2/C1=C\c1ccc(C(C)C)cc1` [K-80003, (Z)-2-(3-(4-Iso-propylbenzylidene)-6-fluoro-2-methyl-3H-inden-1-yl)acetic acid], in assay [1], the “inhibition of constitutive and TNFα- or IL-1β-induced PGE2 production” value is “failed to inhibit; also recorded: did not inhibit”. Further, the “development of cancer in patient at elevated risk” value in the assay with cancer is on record as “does not develop cancer”. Further, the “inhibition of ATRA-induced AKT activation, compared with Sulindac” value in the assay on AKT [2] is “much more effective than Sulindac”.
Regarding `CSc1ccc(/C=C2/C(C)=C(CC(=O)O)c3cc(F)ccc32)cc1` [Sulindac, (Z)-2-(3-(4-(Methylthio)benzylidene)-6-fluoro-2-methyl-3H-inden-1-yl)acetic acid], the “inhibition of basal AKT activation” value in the assay on AKT [3] is on record as “Significant inhibition”. Further, the “binding to RARγ” value on RARγ protein is “did not bind”. Besides, the “binding to Nur77 in cells by HPLC” value on Nur77 is “not other nuclear receptors such as RAR and Nur77”. For the same compound, the “binding to RXRα in cells by HPLC” value at RXRα is “direct binding”. Moreover, the “binding to RAR in cells by HPLC” value at RARβ was “not other nuclear receptors such as RAR and Nur77”. Moreover, the “binding to RXRα by altered sensitivity to chymotrypsin digestion” value on RXRα LBD is recorded as “confirmed”. Besides, in the assay with COX, the COX-inhibiting activity result is on record as “potent COX inhibitor”.
